Reference: patent US8816085B2 (Takeda GmbH, priority 2009, dated 2014)

These compounds were tested against T1, PDE5A1 (human PDE5 from platelets) (Homo sapiens, UniProt O76074) (assay: Inhibition of type 5 phosphodiesterase (PDE5) activity, modified SPA test). Settings: PDE5-containing human platelet lysate, 0.5 μM cGMP, value classes, read-out: PDE5A1 inhibitory values [measured as −logIC50 (mol/l)] (converted).
T1 construct: from tissue; host or cells: platelets from fresh blood of human donors (10,000 g supernatant of sonified platelets)
Assay type: biochemical
Method in brief: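 Enzyme source: human platelet lysate (10,000 g supernatant), with 1 μM motapizone and 10 nM PDE2 inhibitor present. SPA format in 20 mM Tris pH 7.4, 5 mM Mg2+, 0.5 μM cGMP with [3H]cGMP tracer; 5 min preincubation at 37 °C, 15 min reaction, stopped with IBMX-containing beads. IC50 by non-linear regression.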

Compared with `Cc1[nH]c2c(-c3cc(F)ccc3OCC3CC3)ccnc2c1C(=O)N[C@H]1CC[C@H](NC(=O)[C@H](C)O)CC1` [Example F15, 7-[2-(Cyclopropylmethoxy)-5-fluorophenyl]-N-(trans-4-{[(2S)-2-hydroxypropanoyl]amino}cyclohexyl)-2-methyl-1H-pyrrolo[3,2-b]pyridine-3-carboxamide], `Cc1[nH]c2c(-c3cc(F)ccc3OCC3CC3)ccnc2c1C(=O)N[C@H]1CC[C@@H](NC(=O)[C@H](C)O)CC1` [Example F17, 7-[2-(Cyclopropylmethoxy)-5-fluorophenyl]-N-(cis-4-{[abs.(2S)-2-hydroxypropanoyl]amino}cyclohexyl)-2-methyl-1H-pyrrolo[3,2-b]pyridine-3-carboxamide] is higher in IC50: < 1 nM for the first, 1 to 10 nM for the second.

`Cc1[nH]c2c(-c3cc(F)ccc3OCC3CC3)ccnc2c1C(=O)N[C@H]1CC[C@@H](NC(=O)CO)CC1` [Example F16, 7-[2-(Cyclopropylmethoxy)-5-fluorophenyl]-N-{cis-4-[(hydroxyacetyl)amino]cyclohexyl}-2-methyl-1H-pyrrolo[3,2-b]pyridine-3-carboxamide] and `Cc1ccc(OCC2CC2)c(-c2ccnc3c(C(=O)N[C@H]4CC[C@H](NC(=O)CO)CC4)c(C)[nH]c23)c1` [Example F36, 7-[2-(Cyclopropylmethoxy)-5-methylphenyl]-N-{trans-4-[(hydroxyacetyl)amino]cyclohexyl}-2-methyl-1H-pyrrolo[3,2-b]pyridine-3-carboxamide] fall in the same range of IC50: 1 to 10 nM for the first, 1 to 10 nM for the second.

First: COc1ccc(-c2ccnc3c(C(=O)NC4CCN(C(=O)CO)CC4)c(C)[nH]c23)c(OCC2CC2)c1 [Example F20, 7-[2-(Cyclopropylmethoxy)-4-methoxyphenyl]-N-[1-(hydroxyacetyl)piperidin-4-yl]-2-methyl-1H-pyrrolo[3,2-b]pyridine-3-carboxamide]
Second: COc1ccc(OCC2CC2)c(-c2ccnc3c(C(=O)NC4CCN(C(=O)CO)CC4)c(C)[nH]c23)c1 [Example F26, 7-[2-(Cyclopropylmethoxy)-5-methoxyphenyl]-N-[1-(hydroxyacetyl)piperidin-4-yl]-2-methyl-1H-pyrrolo[3,2-b]pyridine-3-carboxamide]
The IC50 of the first is lower: < 1 nM for the first, 1 to 10 nM for the second.

`COc1ccc(-c2ccnc3c(C(=O)NC4CCN(C(=O)[C@H](C)O)CC4)c(C)[nH]c23)c(OCC2CC2)c1` [Example F21, 7-[2-(Cyclopropylmethoxy)-4-methoxyphenyl]-N-{1-[(2S)-2-hydroxypropanoyl]piperidin-4-yl}-2-methyl-1H-pyrrolo[3,2-b]pyridine-3-carboxamide] and `COc1ccc(OCC2CC2)c(-c2ccnc3c(C(=O)NC4CCN(C(=O)[C@H](C)O)CC4)c(C)[nH]c23)c1` [Example F27, 7-[2-(Cyclopropylmethoxy)-5-methoxyphenyl]-N-{1-[(2S)-2-hydroxypropanoyl]piperidin-4-yl}-2-methyl-1H-pyrrolo[3,2-b]pyridine-3-carboxamide] cannot be ordered by IC50: < 1 nM for the first, < 1 nM for the second.

`COc1ccc(-c2ccnc3c(C(=O)N[C@H]4CC[C@H](NC(=O)CO)CC4)c(C)[nH]c23)c(OCC2CC2)c1` [Example F22, 7-[2-(Cyclopropylmethoxy)-4-methoxyphenyl]-N-{trans-4-[(hydroxyacetyl)amino]cyclohexyl}-2-methyl-1H-pyrrolo[3,2-b]pyridine-3-carboxamide] and `COc1ccc(-c2ccnc3c(C(=O)N[C@H]4CC[C@@H](NC(=O)CO)CC4)c(C)[nH]c23)c(OCC2CC2)c1` [Example F24, 7-[2-(Cyclopropylmethoxy)-4-methoxyphenyl]-N-{cis-4-[(hydroxyacetyl)amino]cyclohexyl}-2-methyl-1H-pyrrolo[3,2-b]pyridine-3-carboxamide] cannot be ordered by IC50: < 1 nM for the first, < 1 nM for the second.

`COc1ccc(-c2ccnc3c(C(=O)N[C@H]4CC[C@H](NC(=O)[C@H](C)O)CC4)c(C)[nH]c23)c(OCC2CC2)c1` [Example F23, 7-[2-(Cyclopropylmethoxy)-4-methoxyphenyl]-N-(trans-4-{[(2S)-2-hydroxypropanoyl]amino}cyclohexyl)-2-methyl-1H-pyrrolo[3,2-b]pyridine-3-carboxamide] and `COc1ccc(-c2ccnc3c(C(=O)N[C@H]4CC[C@@H](NC(=O)[C@H](C)O)CC4)c(C)[nH]c23)c(OCC2CC2)c1` [Example F25, 7-[2-(Cyclopropylmethoxy)-4-methoxyphenyl]-N-(cis-4-{[(2S)-2-hydroxypropanoyl]amino}cyclohexyl)-2-methyl-1H-pyrrolo[3,2-b]pyridine-3-carboxamide] cannot be ordered by IC50: < 1 nM for the first, < 1 nM for the second.

`COc1ccc(OCC2CC2)c(-c2ccnc3c(C(=O)N[C@H]4CC[C@H](NC(=O)CO)CC4)c(C)[nH]c23)c1` [Example F28, 7-[2-(Cyclopropylmethoxy)-5-methoxyphenyl]-N-{trans-4-[(hydroxyacetyl)amino]cyclohexyl}-2-methyl-1H-pyrrolo[3,2-b]pyridine-3-carboxamide] and `COc1ccc(OCC2CC2)c(-c2ccnc3c(C(=O)N[C@H]4CC[C@@H](NC(=O)CO)CC4)c(C)[nH]c23)c1` [Example F30, 7-[2-(Cyclopropylmethoxy)-5-methoxyphenyl]-N-{cis-4-[(hydroxyacetyl)amino]cyclohexyl}-2-methyl-1H-pyrrolo[3,2-b]pyridine-3-carboxamide] cannot be ordered by IC50: < 1 nM for the first, < 1 nM for the second.

`COc1ccc(OCC2CC2)c(-c2ccnc3c(C(=O)N[C@H]4CC[C@H](NC(=O)[C@H](C)O)CC4)c(C)[nH]c23)c1` [Example F29, 7-[2-(Cyclopropylmethoxy)-5-methoxyphenyl]-N-(trans-4-{[abs.(2S)-2-hydroxypropanoyl]amino}cyclohexyl)-2-methyl-1H-pyrrolo[3,2-b]pyridine-3-carboxamide] and `COc1ccc(OCC2CC2)c(-c2ccnc3c(C(=O)N[C@H]4CC[C@@H](NC(=O)[C@H](C)O)CC4)c(C)[nH]c23)c1` [Example F31, 7-[2-(Cyclopropylmethoxy)-5-methoxyphenyl]-N-(cis-4-{[(2S)-2-hydroxypropanoyl]amino}cyclohexyl)-2-methyl-1H-pyrrolo[3,2-b]pyridine-3-carboxamide] cannot be ordered by IC50: < 1 nM for the first, < 1 nM for the second.

`Cc1ccc(OCC2CC2)c(-c2ccnc3c(C(=O)NC4CCN(C(=O)CO)CC4)c(C)[nH]c23)c1` [Example F34, 7-[2-(Cyclopropylmethoxy)-5-methylphenyl]-N-[1-(hydroxyacetyl)piperidin-4-yl]-2-methyl-1H-pyrrolo[3,2-b]pyridine-3-carboxamide] and `Cc1ccc(OCC2CC2)c(-c2ccnc3c(C(=O)NC4CCN(C(=O)[C@H](C)O)CC4)c(C)[nH]c23)c1` [Example F35, 7-[2-(cyclopropylmethoxy)-5-methylphenyl]-N-{1-[abs.(2S)-2-hydroxypropanoyl]piperidin-4-yl}-2-methyl-1H-pyrrolo[3,2-b]pyridine-3-carboxamide] fall in the same range of IC50: 1 to 10 nM for the first, 1 to 10 nM for the second.

`Cc1ccc(OCC2CC2)c(-c2ccnc3c(C(=O)N[C@H]4CC[C@H](NC(=O)[C@H](C)O)CC4)c(C)[nH]c23)c1` [Example F37, 7-[2-(Cyclopropylmethoxy)-5-methylphenyl]-N-(trans-4-{[(2S)-2-hydroxypropanoyl]amino}cyclohexyl)-2-methyl-1H-pyrrolo[3,2-b]pyridine-3-carboxamide] and `Cc1ccc(OCC2CC2)c(-c2ccnc3c(C(=O)N[C@H]4CC[C@@H](NC(=O)CO)CC4)c(C)[nH]c23)c1` [Example F38, 7-[2-(Cyclopropylmethoxy)-5-methylphenyl]-N-{cis-4-[(hydroxyacetyl)amino]cyclohexyl}-2-methyl-1H-pyrrolo[3,2-b]pyridine-3-carboxamide] fall in the same range of IC50: 1 to 10 nM for the first, 1 to 10 nM for the second.
